Data reported in patent US20200281908A1, “MEANS FOR TREATING DEMENTIA OF VARIOUS ETIOLOGY” (priority 2016, published 2020).

What was measured:
[1] = system: CPAR amnesia caused by MES in rats; test: CPAR (conditioned passive avoidance reflex) amnesia caused by maximal electroshock seizure (MES); assay type: in vivo, rat; conditions: n = 10; for CPAR recalling test 24 hours later: Latent time of the reflex / CPAR training Latent time of the reflex: M ± m
Source text: Example 1. The aim of the study is to assess the effect of the liposomal formulation of methyl 4-[2-oxo-1,2-bis[[2-(4-pyridinyl)ethyl]amino]ethyl]benzoate succinate on conditioned passive avoidance reflex (CPAR) amnesia caused by maximal electroshock seizure (MES) in comparison with the pharmaceutical substance of this compound and piracetam in rats.
CPAR is a basic method for studying the effects of drugs affecting memory in any manner whatsoever. When exposed to CPAR, it is possible to identify both memory improvement and its deterioration (amnesic effect). CPAR is based on the inborn hole exploratory behaviour of rodents—the tendency to hide in a limited darkened space.
The apparatus for studying the action of drugs is a dark chamber with an electrode floor. The dark chamber is connected through a square guillotine door with a hinged platform. The hinged platform is illuminated by a 60 watt lamp. The dark chamber is located oil the laboratory table, and the platform hangs above the floor at a height of 800 mm.
First, CPAR was developed in rats. Rats were placed on a lighted platform in from of the dark chamber of the apparatus with their tail toward the inlet and recorded latent time of the reflex. Then, in the dark chamber, the rat received a single 10-second pain stimulation with an electric current (0.3 mA) through the electrode floor (training)
Amnesia was invoked by MES Electric stimulus (250 V, 115-120 mA, 50 Hz, for 0.1 sec) for obtaining MES was applied to the rat through special cornal (ocular) electrodes, previously soaked in saline MES was performed directly after CPAR training.
Experimental groups. The animals were divided into 7 arms: • Arm I: control without amnesia (saline). • Arm II: control with amnesia (MES) • Arm III: Prototype 0.25 mg/kg+MES. • Arm IV: Prototype 1.0 mg/kg+MES. • Arm V: Current liposomal formulation 0.25 mg/kg+MES. • Arm VI: Current liposomal formulation 1.0 mg/kg+MES. • Arm VII: Piracetam 400 mg/kg+MES.
The prototype and the current liposomal composition were administered intragastrically. Piracetam was administered once intraperitoneally 40 minutes before the experiment

[2] = system: streptozotocin-induced rat model of AD; test: CPAR test on a streptozotocin-induced rat model of AD; assay type: in vivo; conditions: for Latent period of going into the dark chamber, Recalling, 24 hours later / Latent period of going into the dark chamber, Recalling, 7 days later / Latent period of going into the dark chamber, Recalling, 14 days later / Latent period of going into the dark chamber, Training LP1 / Number of animals with amnesia that went into the dark chamber during the CPAR recalling test/Number of animals in the group, 24 hours later / Number of animals with amnesia that went into the dark chamber during the CPAR recalling test/Number of animals in the group, 7 days later / Number of animals with amnesia that went into the dark chamber during the CPAR recalling test/Number of animals in the group, 14 days later / percentage of rats with reflex impairment (went into the dark chamber), 24 hours later / percentage of rats with reflex impairment (went into the dark chamber), 7 days later / percentage of rats with reflex impairment (went into the dark chamber), 14 days later: rats, n = 12; for Latent period of going into the dark chamber, Recalling, 24 hours later / Latent period of going into the dark chamber, Recalling, 7 days later / Latent period of going into the dark chamber, Recalling, 14 days later / Latent period of going into the dark chamber, Training LP1: M ± m
Procedure: Example 2. The aim of the study is to assess the specific pharmacological activity of the liposomal formulation of methyl 4-[2-oxo-1,2-bis[[2-(4-pyridinyl)ethyl]amino]ethyl]benzoate succinate in comparison with the pharmaceutical substance of this compound and memantine on memory loss when modelling AD using neurotoxin streptozotocin in rats.
In this study, the modelling of AD was performed using the procedure recommended in the Methodological Recommendations for the preclinical study of nootropic drugs.
According to the procedure, AD modeling was performed by introducing streptozotocin toxin into the cerebral ventricles of the rat.
The surgical neurotoxin injection into the brain was performed in anaesthetized animals (with chloral hydrate at a dose of 200 mg/kg, ip) in a stereotaxic apparatus.
First, the cranial trepanation was performed in animals according to the stereotaxic coordinates; AP (1.0), L (1.5-2). Streptozotocin at a dose of 3 mg/kg was injected bilaterally into the lateral ventricles of the brain according to the stereotaxic coordinates: AP (1.0): L (1.5-2): H (3.0). The toxin was injected at a rate of 0.1 μl per minute; the injected solution volume was 5 μl in each ventricle
The cranial trepanation of the control (sham-operated) animals was performed according to the stereotaxic coordinates: AP (1.0): L (1.5-2), and distilled water was then injected bilaterally into the lateral ventricles of the brain also according to the stereotaxic coordinates, in the same volume and at the same rate as the studied drugs.
1 hour after surgery, the intragastric administration of substances to rats started, which continued for 14 days.
The test pharmaceutical substance (Prototype) and the current liposomal formulation of this compound were administered to rats in 2 doses of 0.25 mg/kg and 1 mg/kg. Memantine at a dose of 1 mg/kg. Distilled water was administered to control animals.
The day after the last injection of substances, procedures that allow testing the training and memory of animals started.
Evaluation of the antiamnesic effect of PAM-12 in comparison with memantine was performed using the CPAR method. A detailed description of the CPAR method is given in Example 1. […] Memory loss was determined in the terms of the reduction of the latent time of the CPAR and increase in the number of animals that went into the dark chamber during reflex recalling test, compared to that of the control
The animals were randomly divided into 8 arms.
1. Intact control—distilled water, intragastrically (i.g.), 14 days-12 rats.
2. Control—sham-operated animals—distilled water, i.g. 14 days-12 rats.
3. Active control—injection of streptozotocin (STZ) 3 mg/kg into the cerebral ventricles+distilled water, i.g., 14 days-12 rats
4. Prototype 0.25 mg/kg, i.g., 14 days: the first injection 1 hour after the injection of STZ into the cerebral ventricles and then daily for 14 days-12 rats.
5. Prototype 1.0 mg/kg, i.g., 14 days: the first injection 1 hour after the injection of STZ into the cerebral ventricles and then daily for 14 days-12 rats.
6. Current liposomal formulation 0.25 mg/kg, i.g., 14 days: the first injection 1 hour after the injection of STZ into the cerebral ventricles and then daily for 14 days-12 rats
7. Current liposomal formulation 1.0 mg/kg, i.g., 14 days: the first injection 1 hour after the injection of STZ into the cerebral ventricles and then daily for 14 days-12 rats.
8. Memantine 1 mg/kg. i.g., 14 days: the first injection 1 hour after the injection of STZ into the cerebral ventricles and then daily for 14 days-12 rats.

[3] = 400 mg/kg once intraperitoneally + MES
[4] = 1.0 mg/kg i.g. + STZ (memantine printed p.o.)
[5] = 0.25 mg/kg once intragastrically + MES
[6] = 1 mg/kg once intragastrically + MES

## NC(=O)CN1CCCC1=O [Piracetam]
[1]; [3]
  CPAR recalling test 24 hours later: Latent time of the reflex: 97.17 ± 21.43 s
  CPAR training Latent time of the reflex: 19.11 ± 5.28 s
  CPAR recalling test 24 hours later: Number of animals that did not go into the dark chamber, %: 50%

## CC12CC3CC(C)(C1)CC(N)(C3)C2 [Memantine]
[2]; 1 mg/kg
  antiamnesic effect in rats of the streptozotocin-induced AD model: pronounced antiamnesic effect
[2]; 1.0 mg/kg i.g. 14 days + STZ
  Latent period of going into the dark chamber, Recalling, 24 hours later: 166.4 ± 13.6 s
  Latent period of going into the dark chamber, Recalling, 7 days later: 166.4 ± 13.6 s
  Latent period of going into the dark chamber, Recalling, 14 days later: 143.5 ± 19.2 s
  Latent period of going into the dark chamber, Training LP1: 20.4 ± 3.4 s
[2]; [4]
  Number of animals with amnesia that went into the dark chamber during the CPAR recalling test/Number of animals in the group, 24 hours later: 1/12
  Number of animals with amnesia that went into the dark chamber during the CPAR recalling test/Number of animals in the group, 7 days later: 1/12
  Number of animals with amnesia that went into the dark chamber during the CPAR recalling test/Number of animals in the group, 14 days later: 3/12
  percentage of rats with reflex impairment (went into the dark chamber), 24 hours later: 8.3%
  percentage of rats with reflex impairment (went into the dark chamber), 7 days later: 8.3%
  percentage of rats with reflex impairment (went into the dark chamber), 14 days later: 25%
[2]; 1 mg/kg, 24 hours after the CPAR training
  number of rats who forgot about the pain stimulation, times less compared to Active Control group: 5 times
[2]; 1 mg/kg, 7 days after the CPAR training
  number of rats who forgot about the pain stimulation, times less compared to Active Control group: 7 times
[2]; 1 mg/kg, 7 days later
  latent period longer than in the Active control group: 1.5 times
[2]; 1 mg/kg, 14 days after the CPAR training
  number of rats who forgot about the pain stimulation, times less compared to Active Control group: 2.7 times
[2]; 1 mg/kg, 14 days later
  latent period longer than in the Active control group: 1.9 times

## COC(=O)c1ccc(C(NCCc2ccncc2)C(=O)NCCc2ccncc2)cc1.O=C(O)CCC(=O)O (stereo not shown) [Prototype, methyl 4-[2-oxo-1,2-bis[[2-(4-pyridinyl)ethyl]amino]ethyl]benzoate succinate]
[1]; [5]
  CPAR recalling test 24 hours later: Latent time of the reflex: 107.86 ± 15.12 s
  CPAR training Latent time of the reflex: 20.38 ± 4.38 s
[1]; [6]
  CPAR recalling test 24 hours later: Latent time of the reflex: 118.13 ± 17.26 s
  CPAR training Latent time of the reflex: 13.29 ± 2.78 s
[2]; 0.25 mg/kg i.g. 14 days + STZ
  Latent period of going into the dark chamber, Recalling, 24 hours later: 133.1 ± 13.3 s
  Latent period of going into the dark chamber, Recalling, 7 days later: 121.3 ± 17.8 s
  Latent period of going into the dark chamber, Recalling, 14 days later: 102.8 ± 19.4 s
  Latent period of going into the dark chamber, Training LP1: 24.3 ± 5.1 s
[2]; 0.25 mg/kg i.g. + STZ
  Number of animals with amnesia that went into the dark chamber during the CPAR recalling test/Number of animals in the group, 24 hours later: 4/12
  Number of animals with amnesia that went into the dark chamber during the CPAR recalling test/Number of animals in the group, 7 days later: 5/12
  Number of animals with amnesia that went into the dark chamber during the CPAR recalling test/Number of animals in the group, 14 days later: 6/12
  percentage of rats with reflex impairment (went into the dark chamber), 24 hours later: 33.3%
  percentage of rats with reflex impairment (went into the dark chamber), 7 days later: 41.7%
  percentage of rats with reflex impairment (went into the dark chamber), 14 days later: 50%
[2]; 1.0 mg/kg i.g. 14 days + STZ
  Latent period of going into the dark chamber, Recalling, 24 hours later: 147.7 ± 16.2 s
  Latent period of going into the dark chamber, Recalling, 7 days later: 132.3 ± 2.8 s
  Latent period of going into the dark chamber, Recalling, 14 days later: 124.9 ± 20.3 s
  Latent period of going into the dark chamber, Training LP1: 30.1 ± 12.1 s
[2]; [4]
  Number of animals with amnesia that went into the dark chamber during the CPAR recalling test/Number of animals in the group, 24 hours later: 3/12
  Number of animals with amnesia that went into the dark chamber during the CPAR recalling test/Number of animals in the group, 7 days later: 4/12
  Number of animals with amnesia that went into the dark chamber during the CPAR recalling test/Number of animals in the group, 14 days later: 5/12
  percentage of rats with reflex impairment (went into the dark chamber), 24 hours later: 25%
  percentage of rats with reflex impairment (went into the dark chamber), 7 days later: 33.3%
  percentage of rats with reflex impairment (went into the dark chamber), 14 days later: 41.7%
